For test [1], the system named is CCL17 secretion in peripheral human whole blood. Nature of the test: Human Whole Blood (HWB) CCL17 TR-FRET Assay (IL-13 stimulated CCL17 secretion). It is filed as cell-based. The method, boiled down:
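IC50 values reflect inhibition of IL-13-driven CCL17 release in human whole blood. Blood was preincubated with compound 2 h, stimulated 48 h at 37 °C with IL-13 (10 ng/mL final), and serum CCL17 was measured by TR-FRET.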

The next test concerns the target T1, STAT6 (Homo sapiens, UniProt P42226).
T1 construct: stably transfected HaCaT keratinocyte cell line, which expresses NanoLuc luciferase reporter gene under the transcriptional control of the STAT6 responsive promoter; endogenous in cells; host or cells: HaCaT keratinocyte reporter cell line (stably transfected with a NanoLuc reporter)
T1 sequence (P42226 1-847): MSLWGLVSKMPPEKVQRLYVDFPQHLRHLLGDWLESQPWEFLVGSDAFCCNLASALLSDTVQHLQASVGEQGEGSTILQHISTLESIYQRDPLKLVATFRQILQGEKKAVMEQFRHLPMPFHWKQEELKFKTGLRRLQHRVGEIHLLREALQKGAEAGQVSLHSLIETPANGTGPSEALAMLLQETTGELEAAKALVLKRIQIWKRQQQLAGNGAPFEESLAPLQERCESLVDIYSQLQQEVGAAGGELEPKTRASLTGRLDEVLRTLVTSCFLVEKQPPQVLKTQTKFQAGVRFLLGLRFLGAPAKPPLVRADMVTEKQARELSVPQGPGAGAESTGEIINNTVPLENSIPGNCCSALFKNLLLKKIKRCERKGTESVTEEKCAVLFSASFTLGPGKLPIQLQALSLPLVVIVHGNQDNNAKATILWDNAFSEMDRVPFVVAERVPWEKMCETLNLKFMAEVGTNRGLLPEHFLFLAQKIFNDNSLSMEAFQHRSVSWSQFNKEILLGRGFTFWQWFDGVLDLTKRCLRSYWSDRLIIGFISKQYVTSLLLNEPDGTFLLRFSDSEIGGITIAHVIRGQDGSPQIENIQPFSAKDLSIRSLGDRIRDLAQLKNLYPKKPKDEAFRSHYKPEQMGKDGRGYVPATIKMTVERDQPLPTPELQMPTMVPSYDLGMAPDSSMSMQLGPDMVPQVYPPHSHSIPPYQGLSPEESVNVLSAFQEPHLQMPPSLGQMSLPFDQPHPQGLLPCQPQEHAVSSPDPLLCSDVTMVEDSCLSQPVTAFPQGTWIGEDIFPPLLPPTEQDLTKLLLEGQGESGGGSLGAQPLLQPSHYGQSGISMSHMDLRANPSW
The experiment in a line: STAT6 Reporter Luciferase Assay (IL-13 stimulated HaCaT keratinocyte NanoLuc reporter cells). It is filed as cell-based. Particulars: read-out: Reporter EC50. In outline: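 HaCaT IL-13Ra2-promoter NanoLuc reporter; cpd 2 h 37 °C in DMEM/2% HI FBS; IL-13 0.12 nM final, 4 h; Nano-Glo luminescence.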

The mark [2] stands for this setting: Homo sapiens, 48 h, human whole blood, 10 ng/mL IL13, 48 hours.
Setting [3] is: IL-13 stimulated HaCaT STAT6 NanoLuc reporter cells.
The mark [4] stands for this setting: Homo sapiens, 48 h, inhibition of CCL17 secretion in human whole blood, 10 ng/mL IL13, 48 hours.
Setting [5] is: STAT6 NanoLuc luciferase reporter, IL-13 stimulated HaCaT keratinocyte cells.

Counter-ions that a name gives are not always drawn. Like-named read-outs stand apart in the source and are kept apart here.

In general, IC50 refers to the concentration that inhibits the measured activity by half. Broadly, the EC50 is the concentration needed to bring the measured effect to its halfway point. For `C[C@@H]1CN(c2ccc(C(=O)N(C)C)cn2)Cc2c(C(=O)NCc3ccc(NC(=O)N(C)C)cc3)nn(C3CCOCC3)c21` (single isomer, unassigned) [Example 556], it took 196 nM to reach half-maximal inhibition in test [1] (setting [2]) (IC50). In addition, the EC50 at STAT6 (setting [3]) was 58 nM.

In test [1] (setting [2]), `C[C@@H]1CN(c2ccc(C(=O)N(C)C)cn2)Cc2c(C(=O)NCc3ccc(NC(=O)N(C)C)cc3)nn(C3CCC3)c21` (single isomer, unassigned) [Example 557] yielded an IC50 of 204 nM. Further, the EC50 at STAT6 (setting [3]) amounted to 15 nM.

In turn, `CNC1(C)CCN(C(=O)Nc2ccc(CNC(=O)c3nn(C(C)C)c4c3CN(c3ccc(C(=O)N(C)C)cc3)C[C@@H]4C)cc2)C1` (single isomer, unassigned) [Example 713, (S)-5-(4-(dimethylcarbamoyl)phenyl)-1-isopropyl-7-methyl-N-(4-((R*)-3-methyl-3-(methylamino)pyrrolidine-1-carboxamido)benzyl)-4,5,6,7-tetrahydro-1H-pyrazolo[4,3-c]pyridine-3-carboxamide] registered an IC50 in test [1] (Homo sapiens, 48 h, human whole blood, IL-13 10 ng/mL) of 22 nM. Further, the EC50 at STAT6 (setting [3]) turned out to be 3 nM.

For the compound `CNC1(C)CCN(C(=O)Nc2ccc(CNC(=O)c3nn(C(C)C)c4c3CN(c3ccc(C(=O)N(C)C)cc3)C[C@@H]4C)cc2)C1` (single isomer, unassigned) [Example 714, (S)-5-(4-(dimethylcarbamoyl)phenyl)-1-isopropyl-7-methyl-N-(4-((R*)-3-methyl-3-(methylamino)pyrrolidine-1-carboxamido)benzyl)-4,5,6,7-tetrahydro-1H-pyrazolo[4,3-c]pyridine-3-carboxamide], in test [1] (human whole blood, IL-13 10 ng/mL, 48 hours), the IC50 turned out to be 28 nM. Moreover, at STAT6 (setting [3]), the EC50 was 4 nM.

In test [1] (setting [4]), `CC(C)n1nc(C(=O)NCc2ccc(NC(=O)N(C)C)cc2)c2c1CCN(c1ccc(N3CCCC3=O)cn1)C2` [Example 1, N-(4-(3,3-dimethylureido)benzyl)-1-isopropyl-5-(5-(2-oxopyrrolidin-1-yl)pyridin-2-yl)-4,5,6,7-tetrahydro-1H-pyrazolo[4,3-c]pyridine-3-carboxamide] came in with an IC50 of 318 nM. Further, the EC50 at STAT6 (setting [5]) turned out to be 11 nM.

Regarding `CC(C)n1nc(C(=O)NCc2ccc(NC(=O)N(C)C)cc2)c2c1CCN(c1ccc(C(=O)N(C)C)cn1)C2` [Example 2, 5-(5-(Dimethylcarbamoyl)pyridin-2-yl)-N-(4-(3,3-dimethylureido)benzyl)-1-isopropyl-4,5,6,7-tetrahydro-1H-pyrazolo[4,3-c]pyridine-3-carboxamide], the midpoint of inhibition in test [1] (setting [4]), the IC50, lay at 69 nM. Moreover, the EC50 on STAT6 (setting [5]) was found to be 8 nM.

Turning to `CCn1nc(C(=O)NCc2ccc(NC(=O)N(C)C)cc2)c2c1CCN(c1ccc(C(=O)N(C)C)cn1)C2` [Example 3, 5-(5-(Dimethylcarbamoyl)pyridin-2-yl)-N-(4-(3,3-dimethylureido)benzyl)-1-ethyl-4,5,6,7-tetrahydro-1H-pyrazolo[4,3-c]pyridine-3-carboxamide], the IC50 in test [1] (setting [4]) came out at 104 nM. For the same compound, the 50% effective concentration (EC50) on STAT6 (setting [5]) worked out at 10 nM.

Regarding `CNC(=O)c1ccc(CNC(=O)c2nn(C)c3c2CN(c2ccc(C(=O)N(C)C)cc2)CC3)cc1` [Example 4, 5-(4-(Dimethylcarbamoyl)phenyl)-1-methyl-N-(4-(methylcarbamoyl)benzyl)-4,5,6,7-tetrahydro-1H-pyrazolo[4,3-c]pyridine-3-carboxamide], the IC50 in test [1] (setting [4]) was 1110 nM. The 50% effective concentration (EC50) on STAT6 (setting [5]) was found to be 178 nM.

On to `Cc1nc(C(=O)NCc2ccc(NC(=O)N(C)C)cc2)c2n1CCN(c1ccc(C(=O)N(C)C)cn1)C2` [Example 5, 7-(5-(Dimethylcarbamoyl)pyridin-2-yl)-N-(4-(3,3-dimethylureido)benzyl)-3-methyl-5,6,7,8-tetrahydroimidazo[1,5-a]pyrazine-1-carboxamide], for which the IC50 in test [1] (inhibition of CCL17 secretion in human whole blood, 10 ng/mL IL13, 48 hours) came to 927 nM. Also, the EC50 on STAT6 (setting [5]) came to 124 nM.

Regarding `CN(C)C(=O)Nc1ccc(CNC(=O)c2nn(C3CC3)c3c2CN(c2ccc(C(=O)N(C)C)cn2)CC3)cc1` [Example 10, 1-Cyclopropyl-5-(5-(dimethylcarbamoyl)pyridin-2-yl)-N-(4-(3,3-dimethylureido)benzyl)-4,5,6,7-tetrahydro-1H-pyrazolo[4,3-c]pyridine-3-carboxamide trifluoroacetate], 94 nM corresponded to half-maximal inhibition in test [1] (setting [4]) (IC50). For the same compound, the EC50 at STAT6 (setting [5]) is 11 nM.

For `CC(C)n1nc(C(=O)NCc2ccc(-c3ncc[nH]3)cc2)c2c1CCN(c1ccc(C(=O)N(C)C)cn1)C2` [Example 11, N-(4-(1H-imidazol-2-yl)benzyl)-5-(5-(dimethylcarbamoyl)pyridin-2-yl)-1-isopropyl-4,5,6,7-tetrahydro-1H-pyrazolo[4,3-c]pyridine-3-carboxamide], half-maximal inhibition in test [1] (setting [4]) (IC50) was put at 205 nM. The EC50 on STAT6 (setting [5]) worked out at 16 nM.

In turn, `CN(C)C(=O)Nc1ccc(CNC(=O)c2nn(C)c3c2CN(c2ccc(-c4nccn4C)cn2)CC3)cc1` [Example 12, N-(4-(3,3-Dimethylureido)benzyl)-1-methyl-5-(5-(1-methyl-1H-imidazol-2-yl)pyridin-2-yl)-4,5,6,7-tetrahydro-1H-pyrazolo[4,3-c]pyridine-3-carboxamide] yielded an IC50 in test [1] (setting [4]) of 93 nM. Moreover, the EC50 at STAT6 (setting [5]) was 16 nM.

Compound `CN(C)C(=O)Nc1ccc(CNC(=O)c2nc(C3CC3)n3c2CN(c2ccc(C(=O)N(C)C)cn2)CC3)cc1` [Example 13, 3-cyclopropyl-7-(5-(dimethylcarbamoyl)pyridin-2-yl)-N-(4-(3,3-dimethylureido)benzyl)-5,6,7,8-tetrahydroimidazo[1,5-a]pyrazine-1-carboxamide] had an IC50 in test [1] (setting [4]) of 83 nM. On STAT6 (setting [5]), the EC50 stood at 17 nM.

Compound `CN(C)C(=O)Nc1ccc(CNC(=O)c2nn(C)c3c2CN(c2ccc(C(=O)N(C)C)cn2)CC3)cc1` [Example 14, 5-(5-(dimethylcarbamoyl)pyridin-2-yl)-N-(4-(3,3-dimethylureido)benzyl)-1-methyl-4,5,6,7-tetrahydro-1H-pyrazolo[4,3-c]pyridine-3-carboxamide] showed an IC50 in test [1] (setting [4]) of 260 nM. Moreover, at STAT6 (setting [5]), the EC50 came to 29 nM.

`CNC(=O)c1ccc(CNC(=O)c2nn(C)c3c2CN(c2ccc(C(=O)N(C)C)cn2)CC3)cc1` [Example 15, 5-(5-(dimethylcarbamoyl)pyridin-2-yl)-1-methyl-N-(4-(methylcarbamoyl)benzyl)-4,5,6,7-tetrahydro-1H-pyrazolo[4,3-c]pyridine-3-carboxamide] yielded an IC50 in test [1] (setting [4]) of 1160 nM. Further, on STAT6 (setting [5]), the EC50 came to 159 nM.

`CNC(=O)c1ccc(CNC(=O)c2nc(C3CC3)n3c2CN(c2ccc(C(=O)N(C)C)cn2)CC3)cc1` [Example 16, 3-cyclopropyl-7-(5-(dimethylcarbamoyl)pyridin-2-yl)-N-(4-(methylcarbamoyl)benzyl)-5,6,7,8-tetrahydroimidazo[1,5-a]pyrazine-1-carboxamide] registered an IC50 in test [1] (setting [4]) of 791 nM. In addition, at STAT6 (setting [5]), the EC50 was 261 nM.

On to `CN(C)C(=O)Nc1ccc(CNC(=O)c2ncn3c2CN(c2ccc(C(=O)N(C)C)cn2)CC3)cc1` [Example 17, 7-(5-(dimethylcarbamoyl)pyridin-2-yl)-N-(4-(3,3-dimethylureido)benzyl)-5,6,7,8-tetrahydroimidazo[1,5-a]pyrazine-1-carboxamide], for which 291 nM corresponded to half-maximal inhibition in test [1] (setting [4]) (IC50). Besides, at STAT6 (setting [5]), the EC50 was 322 nM.

Regarding `CN(C)C(=O)Nc1ccc(CNC(=O)c2n[nH]c3c2CN(c2ccc(C(=O)N(C)C)cn2)CC3)cc1` [Example 18, 5-(5-(Dimethylcarbamoyl)pyridin-2-yl)-N-(4-(3,3-dimethylureido)benzyl)-4,5,6,7-tetrahydro-1H-pyrazolo[4,3-c]pyridine-3-carboxamide], in test [1] (setting [4]), the IC50 came to 1380 nM. For the same compound, the EC50 on STAT6 (setting [5]) was 1420 nM.

As to `CN(C)C(=O)Nc1ccc(CNC(=O)c2c3c(nn2C2CC2)CCN(c2ccc(C(=O)N(C)C)cn2)C3)cc1` [Example 19, 2-cyclopropyl-5-(5-(dimethylcarbamoyl)pyridin-2-yl)-N-(4-(3,3-dimethylureido)benzyl)-4,5,6,7-tetrahydro-2H-pyrazolo[4,3-c]pyridine-3-carboxamide], the IC50 in test [1] (setting [4]) amounted to 3360 nM. For the same compound, at STAT6 (setting [5]), the EC50 is more than 10000 nM.
